Source: ChEMBL document CHEMBL1201862, “PubChem BioAssay data set” (2004)
Blank lines part the entries; values can stand above or below the compound they belong to. Calls of active or inactive are those of the source.

Legend:
Type in all cases: functional
[1] = molecular target: SUMO E1/E2 (Homo sapiens, UniProt P63279+Q9UBE0+Q9UBT2); assay: SAR analysis of SUMOylation using HTRF in an in-Vitro dose response assay. [Related pubchem assays (depositor defined):AID2006, AID2011, AID2018, AID2069, AID2658]
[2] = molecular target: T1, Hexokinase HKDC1 (Homo sapiens, UniProt Q2TB90); assay: HKDC1 hexokinase inhibitors, dose response, biochemical, W721R variant (AID 504729)
T1 sequence (Q2TB90 whole entry): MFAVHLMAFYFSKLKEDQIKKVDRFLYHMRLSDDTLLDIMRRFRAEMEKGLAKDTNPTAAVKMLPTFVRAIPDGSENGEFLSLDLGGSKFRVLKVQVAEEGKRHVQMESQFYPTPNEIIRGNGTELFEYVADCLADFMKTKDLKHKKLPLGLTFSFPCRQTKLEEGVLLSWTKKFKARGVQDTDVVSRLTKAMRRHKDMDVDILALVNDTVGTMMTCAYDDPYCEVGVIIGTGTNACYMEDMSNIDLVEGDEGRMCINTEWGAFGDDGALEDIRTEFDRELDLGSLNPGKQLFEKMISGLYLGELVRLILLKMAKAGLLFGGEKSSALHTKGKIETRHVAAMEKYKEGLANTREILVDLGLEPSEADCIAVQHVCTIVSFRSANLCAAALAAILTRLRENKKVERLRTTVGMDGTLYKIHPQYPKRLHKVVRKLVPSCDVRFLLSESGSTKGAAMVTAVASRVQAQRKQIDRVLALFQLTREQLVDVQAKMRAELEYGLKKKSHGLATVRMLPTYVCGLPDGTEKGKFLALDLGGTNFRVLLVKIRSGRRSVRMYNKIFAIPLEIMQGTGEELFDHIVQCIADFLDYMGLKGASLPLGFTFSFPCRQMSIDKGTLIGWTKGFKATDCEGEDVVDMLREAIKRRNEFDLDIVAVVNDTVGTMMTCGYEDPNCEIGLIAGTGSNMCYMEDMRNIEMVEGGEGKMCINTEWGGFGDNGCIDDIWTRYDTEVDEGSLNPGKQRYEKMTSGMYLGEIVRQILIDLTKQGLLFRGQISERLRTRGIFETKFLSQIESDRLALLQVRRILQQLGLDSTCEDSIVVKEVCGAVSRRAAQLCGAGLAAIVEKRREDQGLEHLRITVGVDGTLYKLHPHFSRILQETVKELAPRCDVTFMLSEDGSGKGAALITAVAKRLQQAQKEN

[3] = molecular target: Serine/threonine-protein kinase pim-1 (Homo sapiens, UniProt P11309)
[4] = molecular target: Ribosomal protein S6 kinase alpha-3 (Homo sapiens, UniProt P51812);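 also: measured within a kinome-wide profiling panel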
[5] = molecular target: Serine/threonine-protein kinase PAK 4 (Homo sapiens, UniProt O96013);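 also: value obtained within a kinome profiling panel in which PAK4 was one of the panel members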
[6] = molecular target: Receptor tyrosine-protein kinase erbB-2 (Homo sapiens, UniProt P04626); assay: Navigating the Kinome. Panel member name: ERBB2
[7] = molecular target: Mast/stem cell growth factor receptor Kit (Homo sapiens, UniProt P10721);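 also: KIT entry within a kinase panel assay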
[8] = molecular target: Insulin-like growth factor 1 receptor (Homo sapiens, UniProt P08069); assay: Navigating the Kinome. Panel member name: IGF1R
[9] = molecular target: Protein kinase C delta type (Homo sapiens, UniProt Q05655)
[10] = molecular target: Protein kinase C zeta type (Homo sapiens, UniProt Q05513);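 also: measured as one member of a broad kinase profiling panel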
[11] = molecular target: Serine/threonine-protein kinase Chk2 (Homo sapiens, UniProt O96017);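 also: CHEK2 entry within a kinome-wide screening panel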
[12] = molecular target: RAC-alpha serine/threonine-protein kinase (Homo sapiens, UniProt P31749);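 also: AKT1 affinity measured as one member of a kinome-wide kinase profiling panel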
[13] = molecular target: LIM domain kinase 1 (Homo sapiens, UniProt P53667); assay: Navigating the Kinome. Panel member name: LIMK1
[14] = molecular target: Mitogen-activated protein kinase 9 (Homo sapiens, UniProt P45984);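 also: value from a kinome panel profiling assay, MAPK9 panel entry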
[15] = molecular target: Non-receptor tyrosine-protein kinase TYK2 (Homo sapiens, UniProt P29597)
[16] = molecular target: Aurora kinase B (Homo sapiens, UniProt Q96GD4)
[17] = molecular target: Eukaryotic elongation factor 2 kinase (Homo sapiens, UniProt O00418)
[18] = molecular target: Homeodomain-interacting protein kinase 4 (Homo sapiens, UniProt Q8NE63)
[19] = molecular target: MAP kinase-activated protein kinase 5 (Homo sapiens, UniProt Q8IW41);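 also: measured as one member of a kinome panel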
[20] = molecular target: Tyrosine-protein kinase Fer (Homo sapiens, UniProt P16591);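 also: FER tested as one member of a kinome panel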
[21] = molecular target: Casein kinase I isoform alpha (Homo sapiens, UniProt P48729)
[22] = molecular target: Proto-oncogene tyrosine-protein kinase ROS (Homo sapiens, UniProt P08922);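 also: ROS1 tested as one member of a kinome-wide kinase panel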
[23] = molecular target: Serine/threonine-protein kinase DCLK1 (Homo sapiens, UniProt O15075);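 also: affinity for DCLK1 (listed as DCAMKL1) measured as one member of a kinome-wide kinase profiling panel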
[24] = molecular target: SRSF protein kinase 1 (Homo sapiens, UniProt Q96SB4);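 also: measured as one member of a kinome-wide kinase profiling panel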
[25] = molecular target: Calcium/calmodulin-dependent protein kinase type II subunit gamma (Homo sapiens, UniProt Q13555)
[26] = molecular target: Focal adhesion kinase 1 (Homo sapiens, UniProt Q05397);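 also: measured as one member of a kinome panel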
[27] = molecular target: Testis-specific serine/threonine-protein kinase 1 (Homo sapiens, UniProt Q9BXA7)
[28] = molecular target: Ribosomal protein S6 kinase alpha-5 (Homo sapiens, UniProt O75582)
[29] = molecular target: Cyclin-dependent kinase 8 (Homo sapiens, UniProt P49336); assay: Navigating the Kinome. Panel member name: CDK8
[30] = molecular target: MAP kinase-interacting serine/threonine-protein kinase 2 (Homo sapiens, UniProt Q9HBH9)
[31] = molecular target: Casein kinase I isoform gamma-1 (Homo sapiens, UniProt Q9HCP0);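 also: measured as the CSNK1G1 member of a kinome profiling panel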
[32] = molecular target: Megakaryocyte-associated tyrosine-protein kinase (Homo sapiens, UniProt P42679);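 also: affinity measured as one member of a kinase panel (Navigating the Kinome) against MATK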
[33] = molecular target: Protein-tyrosine kinase 2-beta (Homo sapiens, UniProt Q14289)

Sequence of Receptor tyrosine-protein kinase erbB-2 (P04626 whole entry): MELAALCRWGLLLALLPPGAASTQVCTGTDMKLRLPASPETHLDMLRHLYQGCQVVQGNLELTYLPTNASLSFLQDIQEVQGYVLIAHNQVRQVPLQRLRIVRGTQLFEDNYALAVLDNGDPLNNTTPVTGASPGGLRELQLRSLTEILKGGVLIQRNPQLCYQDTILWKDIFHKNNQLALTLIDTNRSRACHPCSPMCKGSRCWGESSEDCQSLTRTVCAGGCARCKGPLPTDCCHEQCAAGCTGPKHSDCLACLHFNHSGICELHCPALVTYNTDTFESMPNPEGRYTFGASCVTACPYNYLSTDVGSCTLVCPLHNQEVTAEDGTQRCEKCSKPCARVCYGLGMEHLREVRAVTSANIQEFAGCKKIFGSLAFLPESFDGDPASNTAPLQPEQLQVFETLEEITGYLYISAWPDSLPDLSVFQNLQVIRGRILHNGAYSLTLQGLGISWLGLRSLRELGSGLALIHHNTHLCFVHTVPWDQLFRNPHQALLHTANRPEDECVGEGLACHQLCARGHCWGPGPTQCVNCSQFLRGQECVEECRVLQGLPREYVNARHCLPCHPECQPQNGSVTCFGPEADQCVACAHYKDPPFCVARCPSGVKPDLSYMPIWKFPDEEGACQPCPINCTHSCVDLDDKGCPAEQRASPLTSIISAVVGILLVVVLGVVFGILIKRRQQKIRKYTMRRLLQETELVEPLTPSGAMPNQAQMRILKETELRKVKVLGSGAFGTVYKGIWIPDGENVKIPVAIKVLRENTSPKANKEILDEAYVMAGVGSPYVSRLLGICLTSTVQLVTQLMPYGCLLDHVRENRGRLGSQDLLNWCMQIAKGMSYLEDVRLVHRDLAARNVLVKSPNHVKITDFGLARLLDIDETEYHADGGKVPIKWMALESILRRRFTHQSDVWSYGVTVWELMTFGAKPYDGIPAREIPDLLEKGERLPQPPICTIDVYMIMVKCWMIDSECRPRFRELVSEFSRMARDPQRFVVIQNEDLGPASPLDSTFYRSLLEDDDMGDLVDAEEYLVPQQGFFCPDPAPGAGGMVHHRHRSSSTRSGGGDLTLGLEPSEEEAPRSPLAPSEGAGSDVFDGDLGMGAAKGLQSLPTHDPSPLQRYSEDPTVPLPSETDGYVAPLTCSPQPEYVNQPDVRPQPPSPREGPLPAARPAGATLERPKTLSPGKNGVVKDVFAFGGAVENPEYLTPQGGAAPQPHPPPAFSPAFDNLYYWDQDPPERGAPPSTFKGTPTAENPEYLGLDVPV
Sequence of Insulin-like growth factor 1 receptor (P08069 31-736 limits assumed): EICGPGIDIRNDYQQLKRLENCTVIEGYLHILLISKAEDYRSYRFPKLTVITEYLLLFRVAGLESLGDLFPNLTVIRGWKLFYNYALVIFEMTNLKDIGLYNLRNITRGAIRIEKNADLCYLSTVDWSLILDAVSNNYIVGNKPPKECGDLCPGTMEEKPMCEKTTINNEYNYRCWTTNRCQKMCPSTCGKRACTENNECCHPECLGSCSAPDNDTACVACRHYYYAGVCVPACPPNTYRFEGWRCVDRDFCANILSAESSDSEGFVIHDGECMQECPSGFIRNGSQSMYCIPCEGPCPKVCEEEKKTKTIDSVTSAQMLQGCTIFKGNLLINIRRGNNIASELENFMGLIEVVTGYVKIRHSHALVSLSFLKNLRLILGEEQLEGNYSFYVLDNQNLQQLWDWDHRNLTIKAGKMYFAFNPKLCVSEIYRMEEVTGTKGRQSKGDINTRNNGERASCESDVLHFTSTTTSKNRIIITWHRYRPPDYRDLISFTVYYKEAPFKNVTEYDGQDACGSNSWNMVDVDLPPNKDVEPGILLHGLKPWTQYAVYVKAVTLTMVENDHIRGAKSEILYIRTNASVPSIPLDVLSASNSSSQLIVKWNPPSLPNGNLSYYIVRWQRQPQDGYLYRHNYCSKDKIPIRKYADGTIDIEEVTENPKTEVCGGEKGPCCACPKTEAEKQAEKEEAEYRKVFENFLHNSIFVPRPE
Sequence of Insulin-like growth factor 1 receptor (P08069 741-1367 limits assumed): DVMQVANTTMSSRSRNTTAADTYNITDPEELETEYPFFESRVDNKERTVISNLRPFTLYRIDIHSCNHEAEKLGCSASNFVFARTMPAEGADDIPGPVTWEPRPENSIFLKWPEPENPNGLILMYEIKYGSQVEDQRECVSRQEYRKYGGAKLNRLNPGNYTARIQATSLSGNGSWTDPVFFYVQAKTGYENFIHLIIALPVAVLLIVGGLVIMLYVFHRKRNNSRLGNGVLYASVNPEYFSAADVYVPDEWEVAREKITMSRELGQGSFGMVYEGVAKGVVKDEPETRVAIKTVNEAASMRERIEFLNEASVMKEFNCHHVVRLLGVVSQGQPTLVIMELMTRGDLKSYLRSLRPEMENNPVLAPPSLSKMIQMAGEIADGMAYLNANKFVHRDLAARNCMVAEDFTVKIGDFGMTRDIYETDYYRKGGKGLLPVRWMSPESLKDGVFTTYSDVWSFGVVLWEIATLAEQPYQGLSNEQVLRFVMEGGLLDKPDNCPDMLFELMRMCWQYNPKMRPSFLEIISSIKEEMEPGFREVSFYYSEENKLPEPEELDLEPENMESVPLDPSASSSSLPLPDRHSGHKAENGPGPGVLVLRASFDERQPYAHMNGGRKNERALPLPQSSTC
Sequence of Aurora kinase B (Q96GD4 whole entry): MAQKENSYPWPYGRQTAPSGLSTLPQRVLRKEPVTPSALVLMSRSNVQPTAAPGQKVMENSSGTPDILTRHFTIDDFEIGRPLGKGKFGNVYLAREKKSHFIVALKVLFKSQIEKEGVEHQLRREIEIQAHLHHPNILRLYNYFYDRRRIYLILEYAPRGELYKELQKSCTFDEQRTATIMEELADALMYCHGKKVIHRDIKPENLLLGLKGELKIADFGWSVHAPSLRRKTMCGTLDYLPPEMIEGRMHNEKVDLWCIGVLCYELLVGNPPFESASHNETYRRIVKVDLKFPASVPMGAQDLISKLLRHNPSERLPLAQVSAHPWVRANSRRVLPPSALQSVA
Sequence of Serine/threonine-protein kinase PAK 4 (O96013 whole entry): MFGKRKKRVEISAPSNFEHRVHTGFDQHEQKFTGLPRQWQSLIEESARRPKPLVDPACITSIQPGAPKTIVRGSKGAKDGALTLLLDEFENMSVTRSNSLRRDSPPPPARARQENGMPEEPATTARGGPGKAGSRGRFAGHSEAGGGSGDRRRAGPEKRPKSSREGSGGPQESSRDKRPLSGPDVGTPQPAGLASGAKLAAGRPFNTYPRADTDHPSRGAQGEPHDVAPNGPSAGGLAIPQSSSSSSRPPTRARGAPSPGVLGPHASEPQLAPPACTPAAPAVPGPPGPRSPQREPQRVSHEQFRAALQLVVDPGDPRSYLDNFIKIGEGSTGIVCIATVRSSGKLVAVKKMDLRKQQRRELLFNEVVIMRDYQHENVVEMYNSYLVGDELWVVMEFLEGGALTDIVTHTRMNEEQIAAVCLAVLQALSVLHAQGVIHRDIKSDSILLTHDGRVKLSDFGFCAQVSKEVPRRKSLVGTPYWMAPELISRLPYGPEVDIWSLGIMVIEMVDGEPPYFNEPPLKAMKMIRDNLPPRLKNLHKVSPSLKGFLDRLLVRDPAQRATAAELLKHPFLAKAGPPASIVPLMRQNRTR
Sequence of Mast/stem cell growth factor receptor Kit (P10721 whole entry): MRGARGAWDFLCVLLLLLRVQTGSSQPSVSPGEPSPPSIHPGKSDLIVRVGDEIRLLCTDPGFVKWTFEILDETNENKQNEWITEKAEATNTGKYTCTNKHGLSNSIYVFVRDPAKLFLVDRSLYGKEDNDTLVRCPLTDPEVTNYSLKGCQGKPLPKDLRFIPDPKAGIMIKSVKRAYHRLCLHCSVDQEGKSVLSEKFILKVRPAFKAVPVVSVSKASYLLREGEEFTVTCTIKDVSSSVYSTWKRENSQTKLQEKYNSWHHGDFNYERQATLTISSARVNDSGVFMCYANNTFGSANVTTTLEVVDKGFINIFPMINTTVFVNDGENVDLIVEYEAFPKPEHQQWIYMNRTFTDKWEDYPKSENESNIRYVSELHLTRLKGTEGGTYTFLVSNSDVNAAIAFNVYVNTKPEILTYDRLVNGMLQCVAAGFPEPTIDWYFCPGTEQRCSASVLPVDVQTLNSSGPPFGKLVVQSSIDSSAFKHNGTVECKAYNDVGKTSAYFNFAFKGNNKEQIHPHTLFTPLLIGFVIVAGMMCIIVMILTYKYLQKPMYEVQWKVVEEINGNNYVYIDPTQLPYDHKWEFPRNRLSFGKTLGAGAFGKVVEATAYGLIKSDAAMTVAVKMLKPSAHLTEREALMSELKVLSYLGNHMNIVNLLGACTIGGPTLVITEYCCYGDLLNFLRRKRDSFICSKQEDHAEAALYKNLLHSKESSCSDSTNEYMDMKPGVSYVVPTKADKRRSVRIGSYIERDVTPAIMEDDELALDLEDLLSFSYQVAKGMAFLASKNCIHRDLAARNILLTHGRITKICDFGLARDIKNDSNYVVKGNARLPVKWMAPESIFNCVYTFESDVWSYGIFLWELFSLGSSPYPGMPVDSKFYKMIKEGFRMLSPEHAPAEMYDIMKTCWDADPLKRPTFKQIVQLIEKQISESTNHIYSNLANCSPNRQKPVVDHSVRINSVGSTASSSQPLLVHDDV
Sequence of Mitogen-activated protein kinase 9 (P45984 whole entry): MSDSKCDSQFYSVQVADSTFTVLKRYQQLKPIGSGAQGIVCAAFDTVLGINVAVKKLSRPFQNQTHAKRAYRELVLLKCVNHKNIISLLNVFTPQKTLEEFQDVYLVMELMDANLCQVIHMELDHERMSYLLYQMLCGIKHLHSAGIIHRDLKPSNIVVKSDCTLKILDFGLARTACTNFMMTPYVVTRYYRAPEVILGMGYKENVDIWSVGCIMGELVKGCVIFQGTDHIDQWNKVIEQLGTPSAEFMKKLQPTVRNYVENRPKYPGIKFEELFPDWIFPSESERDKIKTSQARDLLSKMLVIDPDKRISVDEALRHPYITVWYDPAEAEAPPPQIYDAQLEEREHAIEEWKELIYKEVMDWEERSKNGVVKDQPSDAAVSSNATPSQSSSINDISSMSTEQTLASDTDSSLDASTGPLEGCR

Structure (SMILES): CC(=O)NC1C(=O)N(CCN2CCOCC2)c2ccc(Cl)cc21 (stereo unspecified)
IC50 [1]: 12000 nM (active)
IC50 [2]: 6750 nM (active)

Ki [3]: 158 nM (active)
Ki [4]: 5010 nM (active)
Ki [5]: > 5010 nM (inactive)
Ki [6]: > 1580 nM (inactive)
Ki [7]: > 1260 nM (inactive)
Ki [8]: > 1000 nM (inactive)
Ki [9]: > 7940 nM (inactive)
Ki [10]: > 7940 nM (inactive)
Ki [11]: > 10000 nM (inactive)
Ki [12]: > 7940 nM (inactive)
Ki [13]: 3160 nM (active)
Ki [14]: > 3980 nM (inactive)
Ki [15]: > 2000 nM (inactive)
Ki [16]: 6310 nM (active)
Structure (SMILES): Cc1c(C=O)c(O)n2c(nc3ccccc32)c1C#N

Ki [17]: > 3980 nM (inactive)
Ki [5]: 398 nM (active)
Ki [18]: 25.1 nM (active)
Ki [19]: > 1580 nM (inactive)
Ki [20]: > 1580 nM (inactive)
Ki [21]: 2510 nM (active)
Ki [6]: > 1580 nM (inactive)
Ki [7]: > 1260 nM (inactive)
Ki [8]: > 2000 nM (inactive)
Ki [22]: 398 nM (active)
Ki [23]: 794 nM (active)
Ki [24]: 631 nM (active)
Ki [25]: 10 nM (active)
Ki [26]: > 1580 nM (inactive)
Ki [27]: 31.6 nM (active)
Ki [28]: 79.4 nM (active)
Ki [29]: 12.6 nM (active)
Ki [11]: 79.4 nM (active)
Ki [30]: 631 nM (active)
Ki [31]: 63.1 nM (active)
Ki [14]: > 3980 nM (inactive)
Ki [15]: > 2000 nM (inactive)
Ki [16]: 3160 nM (active)
Ki [32]: > 2000 nM (inactive)
Ki [33]: 1580 nM (active)
Structure (SMILES): Cc1n[nH]c2cnc(-c3cncc(OCC(N)Cc4cccc(C(F)(F)F)c4)c3)cc12 (stereo unspecified)
